Patent publication US8952024B2, “Herbicidal pyrimidone derivatives” (E I du Pont de Nemours and Company, priority 2009, dated 2015)

How the values were obtained:
Experiment in all cases: Test B pre-/postemergence plant response
Type in all cases: in vivo
[1] = tested on: Italian ryegrass (Lolium multiflorum); conditions: for Ryegrass, Italian plant response rating (0 to 100 scale): 0 is no effect, 13 to 15 days
In short: (§1)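 Ratings reflect visual comparison with untreated controls 13 to 15 days after application, from 0 (no effect) to 100 (complete control). Application was preemergence to seeded loam/sand soil or postemergence to 1- to 4-leaf plants, with compound in a non-phytotoxic, surfactant-containing solvent.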

[2] = tested on: bermudagrass (Cynodon dactylon); conditions: for Bermudagrass plant response rating (0 to 100 scale): 0 is no effect, 13 to 15 days
In short: as §1

[3] = tested on: cocklebur (Xanthium strumarium); conditions: for Cocklebur plant response rating (0 to 100 scale): 0 is no effect, 13 to 15 days
In short: as §1

[4] = tested on: downy bromegrass (Bromus tectorum); conditions: for Bromegrass, Downy plant response rating (0 to 100 scale): 0 is no effect, 13 to 15 days
In short: as §1

kochia (Kochia scoparia) = conditions: for Kochia plant response rating (0 to 100 scale): 62 g ai/ha, 0 is no effect, 13 to 15 days
In short: as §1

[5] = tested on: large crabgrass (Digitaria sanguinalis); conditions: for Crabgrass, Large plant response rating (0 to 100 scale): 0 is no effect, 13 to 15 days
In short: as §1

[6] = tested on: morningglory (Ipomoea coccinea); conditions: for Morningglory plant response rating (0 to 100 scale): 0 is no effect, 13 to 15 days
In short: as §1

soybean (Glycine max) = conditions: for Soybean plant response rating (0 to 100 scale): 62 g ai/ha, 0 is no effect, 13 to 15 days
In short: as §1

[7] = tested on: velvetleaf (Abutilon theophrasti); conditions: for Velvetleaf plant response rating (0 to 100 scale): 0 is no effect, 13 to 15 days
In short: as §1

[8] = tested on: wheat (Triticum aestivum); conditions: for Wheat plant response rating (0 to 100 scale): 0 is no effect, 13 to 15 days
In short: as §1

[9] = tested on: woolly cupgrass (Eriochloa villosa); conditions: for Cupgrass, Woolly plant response rating (0 to 100 scale): 0 is no effect, 13 to 15 days
In short: as §1

[10] = tested on: yellow nutsedge (Cyperus esculentus); conditions: for Nutsedge, Yellow plant response rating (0 to 100 scale): 0 is no effect, 13 to 15 days
In short: as §1

[11] = 31 g ai/ha, postemergence, scale 0 to 100, 0 is no effect, 100 is complete control
[12] = 62 g ai/ha, postemergence, 100 is complete control
[13] = Postemergence, 125 g ai/ha, visual rating after 13 to 15 days, scale 0 (no effect) to 100 (complete control)
[14] = Postemergence, 250 g ai/ha, scale 0 to 100 (0 no effect, 100 complete control)
[15] = Preemergence, 31 g ai/ha, scale 0 to 100 (0 no effect, 100 complete control)
[16] = Preemergence, 62 g ai/ha, scale 0 to 100 (0 no effect, 100 complete control)
[17] = Preemergence, 125 g ai/ha, scale 0 to 100, 0 no effect, 100 complete control
[18] = 250 g ai/ha, Preemergence, 0 to 100 scale
[19] = postemergence, 100 is complete control
[20] = Preemergence, 250 g ai/ha, 0 to 100 scale

CCCc1ncc(C(=O)C2=C(O)CCCC2=O)c(=O)n1-c1ccccc1C [Compound 73]
65: Plant response rating, Bermudagrass [2, 11] | Plant response rating, Cocklebur [3, 18] | Plant response rating, Cocklebur [3, 13] | Cupgrass, Woolly plant response rating (0 to 100 scale) [9, 12] | Plant response rating, Cupgrass, Woolly [9, 13] | Plant response rating, Cupgrass, Woolly [9, 14] | Plant response rating, Nutsedge, Yellow [10, 16] | Plant response rating, Nutsedge, Yellow [10, 17]
45: Ryegrass, Italian plant response rating (0 to 100 scale) [1, 12] | Cocklebur plant response rating (0 to 100 scale) [3, 12] | Bromegrass, Downy plant response rating (0 to 100 scale) [4, 12] | Plant response rating, Morningglory [6, 17]
100: Plant response rating, Bermudagrass [2, 18] | Plant response rating, Crabgrass, Large [5, 18] | Plant response rating, Crabgrass, Large [5, 17] | Velvetleaf plant response rating (0 to 100 scale) [7, 12] | Plant response rating, Velvetleaf [7, 13] | Plant response rating, Velvetleaf [7, 14] | Plant response rating, Velvetleaf [7, 15] | Plant response rating, Velvetleaf [7, 16] | Plant response rating, Velvetleaf [7, 17]
95: Plant response rating, Crabgrass, Large [5, 14] | Plant response rating, Morningglory [6, 14] | Plant response rating, Soybean (soybean (Glycine max); [14]) | Plant response rating, Velvetleaf [7, 11]
35: Plant response rating, Ryegrass, Italian [1, 11] | Wheat plant response rating (0 to 100 scale) [8, 12]
85: Crabgrass, Large plant response rating (0 to 100 scale) [5, 12] | Plant response rating, Crabgrass, Large [5, 15] | Soybean plant response rating (0 to 100 scale) (soybean (Glycine max); [19])
60: Plant response rating, Ryegrass, Italian [1, 13] | Plant response rating, Cocklebur [3, 17] | Plant response rating, Bromegrass, Downy [4, 14] | Plant response rating, Cupgrass, Woolly [9, 11]
0: Plant response rating, Ryegrass, Italian [1, 15] | Plant response rating, Ryegrass, Italian [1, 16] | Plant response rating, Ryegrass, Italian [1, 17] | Plant response rating, Cocklebur [3, 11] | Plant response rating, Cocklebur [3, 15] | Plant response rating, Cocklebur [3, 16] | Plant response rating, Bromegrass, Downy [4, 15] | Plant response rating, Kochia (kochia (Kochia scoparia); [15]) | Plant response rating, Morningglory [6, 11] | Plant response rating, Morningglory [6, 15] | Plant response rating, Morningglory [6, 16] | Plant response rating, Wheat [8, 11] | Plant response rating, Wheat [8, 15] | Plant response rating, Wheat [8, 16]
80: Bermudagrass plant response rating (0 to 100 scale) [2, 12] | Plant response rating, Cocklebur [3, 14] | Kochia plant response rating (0 to 100 scale) (kochia (Kochia scoparia); [19]) | Plant response rating, Kochia (kochia (Kochia scoparia); [17]) | Plant response rating, Crabgrass, Large [5, 11] | Plant response rating, Soybean (soybean (Glycine max); [11]) | Plant response rating, Cupgrass, Woolly [9, 18]
5: Plant response rating, Bromegrass, Downy [4, 16] | Plant response rating, Bromegrass, Downy [4, 17] | Plant response rating, Wheat [8, 17]
75: Plant response rating, Kochia (kochia (Kochia scoparia); [11]) | Plant response rating, Morningglory [6, 13]
20: Plant response rating, Bromegrass, Downy [4, 11] | Plant response rating, Bromegrass, Downy [4, 18] | Plant response rating, Cupgrass, Woolly [9, 16] | Plant response rating, Nutsedge, Yellow [10, 11] | Nutsedge, Yellow plant response rating (0 to 100 scale) [10, 12] | Plant response rating, Nutsedge, Yellow [10, 15]
98: Plant response rating, Bermudagrass [2, 16] | Plant response rating, Bermudagrass [2, 17] | Plant response rating, Crabgrass, Large [5, 16]
10: Plant response rating, Cupgrass, Woolly [9, 15]
40: Plant response rating, Wheat [8, 13]
70: Plant response rating, Ryegrass, Italian [1, 14] | Plant response rating, Nutsedge, Yellow [10, 14]
50: Plant response rating, Bermudagrass [2, 15] | Plant response rating, Bromegrass, Downy [4, 13] | Morningglory plant response rating (0 to 100 scale) [6, 12] | Plant response rating, Wheat [8, 14] | Plant response rating, Nutsedge, Yellow [10, 13]
55: Plant response rating, Cupgrass, Woolly [9, 17]
90: Plant response rating, Bermudagrass [2, 13] | Plant response rating, Bermudagrass [2, 14] | Plant response rating, Kochia (kochia (Kochia scoparia); [18]) | Plant response rating, Kochia (kochia (Kochia scoparia); [13]) | Plant response rating, Kochia (kochia (Kochia scoparia); [14]) | Plant response rating, Crabgrass, Large [5, 13] | Plant response rating, Soybean (soybean (Glycine max); [13])

CCCc1ncc(C(=O)C2=C(O)CCCC2=O)c(=O)n1CC1CCCO1 (centres unmarked) [Compound 74]
55: Plant response rating, Cupgrass, Woolly [9, 13] | Plant response rating, Nutsedge, Yellow [10, 16]
60: Plant response rating, Morningglory [6, 11] | Plant response rating, Morningglory [6, 16]
45: Plant response rating, Cocklebur [3, 16]
100: Plant response rating, Bermudagrass [2, 17] | Bermudagrass plant response rating ([2]; Preemergence, 250 g ai/ha, 0 to 100 scale, 0 no effect, 100 complete control) | Plant response rating, Crabgrass, Large [5, 17] | Crabgrass, Large plant response rating [5, 20] | Plant response rating, Morningglory [6, 14] | Velvetleaf plant response rating (0 to 100 scale) [7, 12] | Plant response rating, Velvetleaf [7, 13] | Plant response rating, Velvetleaf [7, 14] | Plant response rating, Velvetleaf [7, 16] | Plant response rating, Velvetleaf [7, 17] | Velvetleaf plant response rating [7, 20]
98: Plant response rating, Bermudagrass [2, 14] | Plant response rating, Bermudagrass [2, 16] | Plant response rating, Kochia (kochia (Kochia scoparia); [14]) | Plant response rating, Crabgrass, Large [5, 15] | Plant response rating, Crabgrass, Large [5, 16] | Plant response rating, Velvetleaf [7, 11] | Plant response rating, Velvetleaf [7, 15]
90: Plant response rating, Cocklebur [3, 13] | Nutsedge, Yellow plant response rating [10, 20]
0: Plant response rating, Ryegrass, Italian [1, 15] | Plant response rating, Ryegrass, Italian [1, 16] | Plant response rating, Ryegrass, Italian [1, 17] | Ryegrass, Italian plant response rating [1, 20] | Plant response rating, Bromegrass, Downy [4, 11] | Plant response rating, Bromegrass, Downy [4, 15] | Plant response rating, Bromegrass, Downy [4, 16] | Plant response rating, Bromegrass, Downy [4, 17] | Bromegrass, Downy plant response rating [4, 20] | Plant response rating, Wheat [8, 15] | Plant response rating, Wheat [8, 16] | Plant response rating, Wheat [8, 17] | Wheat plant response rating [8, 20] | Plant response rating, Cupgrass, Woolly [9, 15] | Plant response rating, Cupgrass, Woolly [9, 16] | Plant response rating, Cupgrass, Woolly [9, 17]
85: Cocklebur plant response rating (0 to 100 scale) [3, 12] | Plant response rating, Kochia (kochia (Kochia scoparia); [17]) | Kochia plant response rating (kochia (Kochia scoparia); [20]) | Morningglory plant response rating (0 to 100 scale) [6, 12]
95: Plant response rating, Bermudagrass [2, 13] | Plant response rating, Cocklebur [3, 14] | Plant response rating, Kochia (kochia (Kochia scoparia); [13]) | Plant response rating, Crabgrass, Large [5, 13] | Plant response rating, Crabgrass, Large [5, 14] | Plant response rating, Morningglory [6, 13] | Plant response rating, Soybean (soybean (Glycine max); [13]) | Plant response rating, Soybean (soybean (Glycine max); [14])
5: Plant response rating, Ryegrass, Italian [1, 11] | Bromegrass, Downy plant response rating (0 to 100 scale) [4, 12] | Plant response rating, Bromegrass, Downy [4, 13] | Plant response rating, Wheat [8, 11] | Wheat plant response rating (0 to 100 scale) [8, 12] | Cupgrass, Woolly plant response rating [9, 20]
80: Bermudagrass plant response rating (0 to 100 scale) [2, 12] | Cocklebur plant response rating [3, 20] | Plant response rating, Kochia (kochia (Kochia scoparia); [15]) | Plant response rating, Crabgrass, Large [5, 11] | Crabgrass, Large plant response rating (0 to 100 scale) [5, 12] | Morningglory plant response rating [6, 20]
10: Plant response rating, Cocklebur [3, 15] | Plant response rating, Morningglory [6, 15] | Plant response rating, Cupgrass, Woolly [9, 11] | Cupgrass, Woolly plant response rating (0 to 100 scale) [9, 12]
75: Plant response rating, Bermudagrass [2, 11] | Plant response rating, Kochia (kochia (Kochia scoparia); [11]) | Kochia plant response rating (0 to 100 scale) (kochia (Kochia scoparia); [19]) | Plant response rating, Morningglory [6, 17] | Plant response rating, Soybean (soybean (Glycine max); [11]) | Soybean plant response rating (0 to 100 scale) (soybean (Glycine max); [19]) | Plant response rating, Cupgrass, Woolly [9, 14]
50: Plant response rating, Wheat [8, 14]
20: Ryegrass, Italian plant response rating (0 to 100 scale) [1, 12] | Plant response rating, Ryegrass, Italian [1, 13] | Plant response rating, Cocklebur [3, 11] | Plant response rating, Nutsedge, Yellow [10, 11] | Nutsedge, Yellow plant response rating (0 to 100 scale) [10, 12] | Plant response rating, Nutsedge, Yellow [10, 15]
35: Plant response rating, Ryegrass, Italian [1, 14] | Plant response rating, Bromegrass, Downy [4, 14]
70: Plant response rating, Cocklebur [3, 17] | Plant response rating, Nutsedge, Yellow [10, 13] | Plant response rating, Nutsedge, Yellow [10, 14]
30: Plant response rating, Wheat [8, 13]
65: Plant response rating, Nutsedge, Yellow [10, 17]
